What was measured:
inhibitor p27 [1] = assay: Western blot, p27 in MDA-MB-234; assay type: cell-based, human
Source text: (§1) SDS-PAGE (Laemmli U.K. 1970, Nature 227, 680-685) and Western Blot (Towbin H., Staehelin T., Gordon J. 1979, Proc. Natl:Acad. Sci. USA 76, 4350-4354) techniques have been used to analyze the expression of proteins known as fundamental targets (markers) in the control of the cellular cycle, whose modifications often lead to an uncontrolled cell proliferation: cyclin-dependent kinase cdk6 (Cover C. M., et al, 1998, J. Biol. Chem. 273, 3838-3847), inhibitor p27 (Wang X., et al., 1997, Oncogene 15, 2991-2997; Vidal A., Koff A. 2000, Gene 247, 1-15) and retinoblastoma Rb (Dyson N. 1998, Genes & Development 12, 2245-2262; Guardavaccaro D., et al., 2000, Mol. Cell. Biol. 20 (5), 1797-1815).
(§2) After growing the cells as previously described, the cell cultures undergo the action of increasing doses of tetramerous derivative. Then culture samples are taken and the cells are lysated with B buffer (Hepes 20 mM pH 7.5, NaCl 420 mM, MgCl2 1.5 mM, EDTA 0.2 mM, glycerol 25%) in presence of antiproteolytic agents Nonidet P40 0.5% (v/v), kept under ice for 20 minutes and centrifuged at 12,000 rpm for 10 minutes at 4° C. […]
(§3) Said markers are then evaluated as previously described on estrogen-negative cell line MDA-MB-234.

[2] = system: cyclin-dependent kinase cdk6; assay: Western blot, level of expression of cdk6 in MCF-7; assay type: cell-based, human; conditions: FIG. 6
Source text: as §1
(§4) After growing the cells as previously described, the cell cultures undergo the action of increasing doses of tetramerous derivative. Then culture samples are taken and the cells are lysated with B buffer (Hepes 20 mM pH 7.5, NaCl 420 mM, MgCl2 1.5 mM, EDTA 0.2 mM, glycerol 25%) in presence of antiproteolytic agents Nonidet P40 0.5% (v/v), kept under ice for 20 minutes and centrifuged at 12,000 rpm for 10 minutes at 4° C.
(§5) The cell lysate (supernatant liquor) is then diluted 1:1 with Sample Buffer 2× and charged into SDS-PAGE at 12% of acrylamide following Laemmli's method (Laemmli U.K. 1970, Nature 227, 680-685). […]

inhibitor p27 [3] = assay: Western blot, level of protein p27 in MCF-7; assay type: cell-based, human; conditions: MCF-7, same concentrations as for cdk6, FIG. 7
Source text: as §1, §4, §5

enzyme cdk6 = assay: Western blot, cdk6 in MDA-MB-234; assay type: cell-based, human
Source text: as §1, §2, §3

retinoblastoma Rb = assay: Western blot, phosphorylation of Rb factor (pRb); assay type: cell-based; conditions: Homo sapiens, FIG. 9
Source text: as §1, §4, §5

[4] = system: MCF-7 cells (breast cancer cells expressing estrogen receptors); assay: Anti-proliferative effect, [3H]-thymidine incorporation into DNA; assay type: cell-based, human; conditions: line MCF-7, increasing concentrations, up to 72 hours, FIG. 1
Procedure: (§6) The activity of the tetramerous derivative has been evaluated both in breast cancer cells grown in laboratory expressing estrogen receptors (line MCF-7) and in cells which are negative for said receptors (line MDA-MB-234).
(§7) MCF-7 and MDA-MB-234 cells have been grown in laboratory in a DMEM medium added with 10% of bovine fetal serum, 1% of a penicillin-streptomycin solution, 1% of a solution of non-essential amino acids, 2 mM glutamine and for MCF-7 also with 10 ug/ml of insulin. For the tests the cells are taken and used in their logarithmic growth phase, suspending them again the same fresh medium and exposing them to the tetramerous derivative up to 72 hours at 37° C. in an atmosphere with 5% of CO2. Before the treatment the cells are grown for some hours so as to adhere well to the plastic and start proliferating. In the tests concerning the evaluation of the anti-proliferative activity the synthesis of DNA is evaluated by adding to the cultures 3 μCi/ml of [3H]-thymidine 6 hours before the end of the treatment.
(§8) The cells are exposed during the culture to increasing concentrations of tetramerous derivative, then evaluating the degree of inhibition of their proliferation by incorporating into the DNA tritium-added thymidine (Cover C. M. et al., 1998, Journal of Biological Chemistry no. 273, page 3838-3847).

[5] = system: MDA-MB-234 cells (negative for estrogen receptors); assay: as above; assay type: cell-based, human; conditions: line MDA-MB-234, increasing concentrations, up to 72 hours, FIG. 2
Procedure: as §6, §7, §8

MCF-7 cells = assay: Cytotoxicity, vital cell count with trypan blue; assay type: cell-based, human
Procedure: (§9) In a second set of tests the activity of the tetramerous derivative on the two cell lines has been evaluated as cytotoxicity using a method (Magnani M. et al., 1995, Biochemical Journal no. 312, page 115-123) which allows to recognize vital from dead cells.
(§10) MCF-7 and MDA-MB-234 cells have been grown as previously described. Then, after 24 and after 72 hours of exposition to the tetramerous derivative they are taken and counted in duplicate in a hemocytometer using trypan blue dye to exclude dead cells.

MDA-MB-234 cells = assay: Cytotoxicity, vital cell count with trypan blue; assay type: cell-based, human; conditions: MDA-MB-234, FIG. 4
Procedure: as §9, §10

Structure (SMILES): c1ccc2c3c([nH]c2c1)Cc1c([nH]c2ccccc12)Cc1c([nH]c2ccccc12)Cc1c([nH]c2ccccc12)C3 [tetramerous derivative]
- level of inhibitor p27 (inhibitor p27 [1]): increase
- level of expression of cdk6 ([2]; MCF-7, 15 μM): great reduction
- level of expression of cdk6 ([2]; MCF-7, 50 μM): sudden decrease
- level of protein p27 (inhibitor p27 [3]): increases
- level of enzyme cdk6 (enzyme cdk6): reduction
- inhibition at 30 µM (retinoblastoma Rb): 60%
- inhibition of cell proliferation [4]: inhibits in a dose-dependent way
- inhibition of cell proliferation [5]: inhibits in a dose-dependent way
- toxicity (percentage of vital cells) in relation to time of administration (MCF-7 cells; MCF-7, 24 and 72 hours, FIG. 5): time-dependent
- toxicity (percentage of vital cells) in relation to amount administered (MCF-7 cells; MCF-7, FIG. 3): dose-dependent
- toxicity (percentage of vital cells) in relation to amount administered (MDA-MB-234 cells): dose-dependent

Source: patent publication US7645788B2, “Tetramerous derivative of indole-3-carbinol with anti-carcinogenic activity and method of synthesis of said derivative” (Universita' Degli Studi Di Urbino, priority 2001, dated 2010)
